We go through 23 molecules from patent US20240368169A1 (priority 2021, published 2024).

The target of data set [1] is recombinant poly(ADP-ribose) polymerase 1 (PARP1) (Homo sapiens, UniProt P09874). Description: biochemical. Conditions: inhibition of PARP1 enzyme activity, chemiluminescence.
The subject of another data set is MDA-MB-436 cells. Put plainly: Growth inhibition assay against BRCA mutant human breast cancer MDA-MB-436 cell line (CCK-8, 7 days). The format is cell-based.
In data set [2] the target is recombinant poly(ADP-ribose) polymerase 2 (PARP2) (Homo sapiens, UniProt Q9UGN5). Put plainly: biochemical. Conditions: inhibition of PARP2 enzyme activity, chemiluminescence.
For data set [3] the following is noted: results of clinical trials; cited from earlier work.
Data set [4] has as its system TNKS1/2 (Tankyrase 1 or Tankyrase 2). As to conditions: compared with other PARP inhibitors, biochemical assay; cited from earlier work.

Sequence of recombinant poly(ADP-ribose) polymerase 2 (PARP2) (Q9UGN5 whole entry): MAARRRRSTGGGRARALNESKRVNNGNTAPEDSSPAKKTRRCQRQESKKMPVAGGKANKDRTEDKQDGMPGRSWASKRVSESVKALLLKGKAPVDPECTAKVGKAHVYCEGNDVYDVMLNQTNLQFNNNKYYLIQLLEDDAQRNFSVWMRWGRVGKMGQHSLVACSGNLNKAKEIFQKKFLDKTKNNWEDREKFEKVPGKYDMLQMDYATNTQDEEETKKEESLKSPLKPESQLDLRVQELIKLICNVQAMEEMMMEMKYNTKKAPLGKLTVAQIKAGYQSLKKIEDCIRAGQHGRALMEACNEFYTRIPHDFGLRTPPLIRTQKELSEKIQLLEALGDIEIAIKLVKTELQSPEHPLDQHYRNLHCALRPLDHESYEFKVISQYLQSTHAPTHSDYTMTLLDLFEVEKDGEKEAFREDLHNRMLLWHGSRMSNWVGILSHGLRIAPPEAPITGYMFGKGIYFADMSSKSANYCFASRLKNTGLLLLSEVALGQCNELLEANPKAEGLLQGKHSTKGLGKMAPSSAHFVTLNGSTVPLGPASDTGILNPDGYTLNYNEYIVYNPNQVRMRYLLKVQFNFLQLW
Sequence of recombinant poly(ADP-ribose) polymerase 1 (PARP1) (P09874 whole entry): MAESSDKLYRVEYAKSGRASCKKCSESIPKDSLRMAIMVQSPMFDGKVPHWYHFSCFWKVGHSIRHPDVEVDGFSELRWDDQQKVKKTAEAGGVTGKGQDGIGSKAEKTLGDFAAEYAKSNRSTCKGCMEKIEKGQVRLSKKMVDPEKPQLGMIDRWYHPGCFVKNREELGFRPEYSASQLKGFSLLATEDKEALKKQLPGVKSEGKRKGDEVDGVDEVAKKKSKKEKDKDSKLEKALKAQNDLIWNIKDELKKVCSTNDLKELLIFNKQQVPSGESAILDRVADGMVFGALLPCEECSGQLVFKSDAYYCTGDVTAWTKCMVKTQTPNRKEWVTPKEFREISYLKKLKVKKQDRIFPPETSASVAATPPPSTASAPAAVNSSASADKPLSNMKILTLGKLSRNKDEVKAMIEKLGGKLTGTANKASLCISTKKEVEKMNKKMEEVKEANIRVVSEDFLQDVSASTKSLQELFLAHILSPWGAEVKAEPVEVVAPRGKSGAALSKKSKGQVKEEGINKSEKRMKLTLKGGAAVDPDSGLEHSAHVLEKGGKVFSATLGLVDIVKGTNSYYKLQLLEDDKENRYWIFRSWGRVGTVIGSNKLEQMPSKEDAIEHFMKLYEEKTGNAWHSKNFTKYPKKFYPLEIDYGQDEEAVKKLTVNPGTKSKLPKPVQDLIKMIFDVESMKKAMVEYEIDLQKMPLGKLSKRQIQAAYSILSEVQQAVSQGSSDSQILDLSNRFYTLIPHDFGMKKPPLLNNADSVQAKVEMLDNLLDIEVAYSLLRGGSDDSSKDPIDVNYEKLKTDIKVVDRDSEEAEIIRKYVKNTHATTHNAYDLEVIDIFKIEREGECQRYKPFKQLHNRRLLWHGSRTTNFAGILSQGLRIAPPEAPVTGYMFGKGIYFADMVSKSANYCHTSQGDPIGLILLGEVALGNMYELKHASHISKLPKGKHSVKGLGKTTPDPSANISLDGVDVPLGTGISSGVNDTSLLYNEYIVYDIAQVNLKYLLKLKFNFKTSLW

As a reminder, the IC50 is the midpoint of a concentration-inhibition curve. For `CNC(=O)c1ccc(N2CCN(Cc3cc(F)c4c(c3)[nH]c(=O)c3cc(C)nn34)CC2)c(F)n1` [Example 73, 7-((4-(2-fluoro-6-(methylcarbamoyl)pyridin-3-yl)piperazin-1-yl)methyl)-9-fluoro-2-methylpyrazolo[1,5-a]quinoxalin-4(5H)-one], the IC50 came to 1.96 nM in data set [1], 1.77 nM with MDA-MB-436 cells and 78.1 nM in data set [2].
The matching figures for `CNC(=O)c1ccc(N2CCN(Cc3cc(F)c4c(c3)[nH]c(=O)c3cc(C)nn34)CC2)c(Cl)n1` [Example 74, 7-((4-(2-chloro-6-(methylcarbamoyl)pyridin-3-yl)piperazin-1-yl)methyl)-9-fluoro-2-methylpyrazolo[1,5-a]quinoxalin-4(5H)-one]: 1.52 nM, 1.58 nM and 186 nM.
The like results for `CNC(=O)c1ccc(N2CCN(Cc3cc(F)c4c(c3)[nH]c(=O)c3c(C)cnn34)CC2)c(F)n1` [Example 76, 7-((4-(2-fluoro-6-(methylcarbamoyl)pyridin-3-yl)piperazin-1-yl)methyl)-9-fluoro-3-methylpyrazolo[1,5-a]quinoxalin-4(5H)-one] were, in that order, 2.1 nM, 1.37 nM and 64.6 nM.
Take `CNC(=O)c1ccc(N2CCN(Cc3cc(F)c4c(c3)[nH]c(=O)c3c(C)cnn34)CC2)c(Cl)n1` [Example 77, 7-((4-(2-chloro-6-(methylcarbamoyl)pyridin-3-yl)piperazin-1-yl)methyl)-9-fluoro-3-methylpyrazolo[1,5-a]quinoxalin-4(5H)-one]: the IC50 was determined as 1.51 nM in data set [1], 2.39 nM in the data set with MDA-MB-436 cells and 241 nM in data set [2].
The matching figures for `CNC(=O)c1ccc(N2CCN(Cc3cc(F)c4c(c3)[nH]c(=O)c3c(C)cnn34)CC2)c(C)n1` [Example 78, 7-((4-(2-methyl-6-(methylcarbamoyl)pyridin-3-yl)piperazin-1-yl)methyl)-9-fluoro-3-methylpyrazolo[1,5-a]quinoxalin-4(5H)-one]: 1.38 nM, 1 nM and 153 nM.
Take `CNC(=O)c1ccc(N2CCN(Cc3cc(F)c4c5c(c(=O)[nH]c4c3)CCC5)CC2)c(F)n1` [Example 80, 7-((4-(2-fluoro-6-(methylcarbamoyl)pyridin-3-yl)piperazin-1-yl)methyl)-9-fluoro-1,2,3,5-tetrahydro-4H-cyclopenta[c]quinolin-4-one]: the IC50 in data set [1] worked out at 2.26 nM; with MDA-MB-436 cells, 2.37 nM; in data set [2] it was 32 nM.
The matching figures for `CNC(=O)c1ccc(N2CCN(Cc3cc(F)c4c(c3)[nH]c(=O)c3cc(Cl)nn34)CC2)c(C)n1` [Example 87, 7-((4-(2-methyl-6-(methylcarbamoyl)pyridin-3-yl)piperazin-1-yl)methyl)-2-chloro-9-fluoropyrazolo[1,5-a]quinoxalin-4(5H)-one]: 1.22 nM, 0.94 nM and 84.1 nM.
The like results for `CNC(=O)c1ccc(N2CCN(Cc3cc(F)c4c(c3)[nH]c(=O)c3cc(Cl)nn34)CC2)c(F)n1` [Example 88, 7-((4-(2-fluoro-6-(methylcarbamoyl)pyridin-3-yl)piperazin-1-yl)methyl)-2-chloro-9-fluoropyrazolo[1,5-a]quinoxalin-4(5H)-one] were, in that order, 1.72 nM, 0.38 nM and 80.3 nM.
As for `Cc1nc(C(N)=O)ccc1N1CCN(Cc2cc(F)c3c(c2)[nH]c(=O)c2ccnn23)CC1` [Example 89, 7-((4-(2-methyl-6-(carbamoyl)pyridin-3-yl)piperazin-1-yl)methyl)-9-fluoropyrazolo[1,5-a]quinoxalin-4(5H)-one], the IC50 in data set [1] stood at 1.72 nM; in the data set with MDA-MB-436 cells, 2.22 nM; in data set [2], 861 nM.
Take `CCNC(=O)c1ccc(N2CCN(Cc3cc(F)c4c(c3)[nH]c(=O)c3ccnn34)CC2)c(C)n1` [Example 91, 7-((4-(2-methyl-6-(ethylcarbamoyl)pyridin-3-yl)piperazin-1-yl)methyl)-9-fluoropyrazolo[1,5-a]quinoxalin-4(5H)-one]: the IC50 in data set [1] was 1.39 nM; in the data set with MDA-MB-436 cells, 2.81 nM; in data set [2] it was 627 nM.
As to `Cc1nc(C(=O)NC2CC2)ccc1N1CCN(Cc2cc(F)c3c(c2)[nH]c(=O)c2ccnn23)CC1` [Example 92, 7-((4-(2-methyl-6-(cyclopropylcarbamoyl)pyridin-3-yl)piperazin-1-yl)methyl)-9-fluoropyrazolo[1,5-a]quinoxalin-4(5H)-one], the IC50 in data set [1] is 1.38 nM; with MDA-MB-436 cells, 5.05 nM; in data set [2], 238 nM.
The matching figures for `CNC(=O)c1ccc(N2CCN(Cc3ccc4c([nH]c(=O)c5ccnn54)c3F)CC2)c(C)n1` [Example 94, 7-((4-(2-methyl-6-(methylcarbamoyl)pyridin-3-yl)piperazin-1-yl)methyl)-6-fluoropyrazolo[1,5-a]quinoxalin-4(5H)-one]: 2.69 nM, 5.05 nM and above 10000 nM.
As to `CNC(=O)c1ccc(N2CCN(Cc3ccc4c([nH]c(=O)c5ccnn54)c3F)CC2)c(F)n1` [Example 95, 7-((4-(2-fluoro-6-(methylcarbamoyl)pyridin-3-yl)piperazin-1-yl)methyl)-6-fluoropyrazolo[1,5-a]quinoxalin-4(5H)-one], the IC50 turned out to be 1.82 nM in data set [1], 6.78 nM with MDA-MB-436 cells and 886 nM in data set [2].
`CNC(=O)c1ccc(N2CCN(Cc3ccc4c(c3)[nH]c(=O)c3c(Cl)cnn34)CC2)c(C)n1` [Example 98, 7-((4-(2-methyl-6-(methylcarbamoyl)pyridin-3-yl)piperazin-1-yl)methyl)-3-chloropyrazolo[1,5-a]quinoxalin-4(5H)-one]: the IC50 came to 1.91 nM in data set [1], 0.62 nM in the data set with MDA-MB-436 cells and 41 nM in data set [2].
For the molecule `CNC(=O)c1ccc(N2CCN(Cc3ccc4c(c3)[nH]c(=O)c3cc(Cl)nn34)CC2)c(C)n1` [Example 100, 7-((4-(2-methyl-6-(methylcarbamoyl)pyridin-3-yl)piperazin-1-yl)methyl)-2-chloropyrazolo[1,5-a]quinoxalin-4(5H)-one], the IC50 in data set [1] was determined as 0.95 nM; in the data set on MDA-MB-436 cells, 0.68 nM; in data set [2], 65.6 nM.
The like results for `CNC(=O)c1ccc(N2CCN(Cc3ccc4c(c3)[nH]c(=O)c3c(C)c(C)nn34)CC2)c(C)n1` [Example 101, 7-((4-(2-methyl-6-(methylcarbamoyl)pyridin-3-yl)piperazin-1-yl)methyl)-2,3-dimethylpyrazolo[1,5-a]quinoxalin-4(5H)-one] were, in that order, 4.43 nM, 2.48 nM and 35.6 nM.
The like results for `CNC(=O)c1ccc(N2CCN(Cc3cc(C)c4c(c3)[nH]c(=O)c3ccnn34)CC2)c(C)n1` [Example 102, 7-((4-(2-methyl-6-(methylcarbamoyl)pyridin-3-yl)piperazin-1-yl)methyl)-9-methylpyrazolo[1,5-a]quinoxalin-4(5H)-one] were, in that order, 6.91 nM, 2.24 nM and 101 nM.
In the case of `CNC(=O)c1ccc(N2CCN(Cc3ccc4c([nH]c(=O)c5cc(Cl)nn54)c3F)CC2)c(C)n1` [Example 103, 7-((4-(2-methyl-6-(methylcarbamoyl)pyridin-3-yl)piperazin-1-yl)methyl)-6-fluoro-2-chloropyrazolo[1,5-a]quinoxalin-4(5H)-one], the IC50 in data set [1] turned out to be 0.76 nM; with MDA-MB-436 cells, 1.17 nM; in data set [2] it was 1250 nM.
As to `CNC(=O)c1ccc(N2CCN(Cc3cc(F)c4c(c3)[nH]c(=O)c3sccc34)CC2)c(C)n1` [Example 114, 7-((4-(2-methyl-6-(methylcarbamoyl)pyridin-3-yl)piperazin-1-yl)methyl)-9-fluorothieno[2,3-c]quinolin-4(5H)-one], the IC50 in data set [1] amounted to 0.67 nM; in the data set on MDA-MB-436 cells, 3.72 nM; in data set [2], 16.9 nM.
The matching figures for `CNC(=O)c1ccc(N2CCN(Cc3ccc4c([nH]c(=O)c5cc(C)nn54)c3F)CC2)c(F)n1` [Example 115, 7-((4-(2-fluoro-6-(methylcarbamoyl)pyridin-3-yl)piperazin-1-yl)methyl)-6-fluoro-2-methylpyrazolo[1,5-a]quinoxalin-4(5H)-one]: 1.45 nM, 1.98 nM and 288 nM.
The matching figures for `Cc1nc(C(=O)NCO)ccc1N1CCN(Cc2cc(F)c3c(c2)[nH]c(=O)c2ccnn23)CC1` [Example 117, 7-((4-(2-methyl-6-(N-(hydroxymethyl)carbamoyl)pyridin-3-yl)piperazin-1-yl)methyl)-9-fluoropyrazolo[1,5-a]quinoxalin-4(5H)-one]: 0.91 nM, 4.74 nM and 645 nM.
The like results for `CNC(=O)c1ccc(N2CCN(Cc3cc(F)c4c(c3)[nH]c(=O)n3ccnc43)CC2)c(Cl)n1` [Example 119, 8-((4-(2-chloro-6-(methylcarbamoyl)pyridin-3-yl)piperazin-1-yl)methyl)-10-fluoroimidazo[1,2-c]quinazolin-5(6H)-one] were, in that order, 1.83 nM, 16.2 nM and 9500 nM.
With `Cn1ncnc1[C@H]1c2n[nH]c(=O)c3cc(F)cc(c23)N[C@@H]1c1ccc(F)cc1` [Talazoparib], in data set [3], the toxicity entry was “toxicity similar to chemotherapy drugs such as hair loss”. Further, in data set [4], the “inhibitory activity against TNKS1/2” value is “more potent inhibitory activity”.
